Experimental data taken from patent US5663346A, “Substituted azaindolylidene compounds and process for their preparation” (Pharmacia S.p.A., priority 1994, dated 1997).
pIC50: −log10 of the molar value.

Legend:
[1] = target: p45 v-abl tyrosine kinase; assay: p45 v-abl Kinase Assay ((Val5)-Angiotensin II phosphorylation); assay type: biochemical, Abelson murine leukemia virus; settings: in-vitro; (Val5)-Angiotensin II 2 mM, ATP 50 mM, 40 ng abl-kinase, pH 8.0; read-out: Inhibition of p-45 v-abl kinase, IC50
Protocol: p45 v-abl Kinase Purification
The enzyme used in our test was the p45 v-abl tyrosine kinase which represents the catalytic domain of the Abelson tyrosine kinase (isolated from the Abelson murine leukemia virus). The p45 v-abl kinase was produced and isolated as described by Wang et al. in J. Biol. chem 260, 64 (1985) and by Ferguson et al. in J. Biol. Chem 260, 3652 (1985) and in Biochem J. 257, 321 (1989).
(Val^5 )-Angiotensin II phosphorylation was performed by incubation with 40 ng of purified abl-kinase and (g-^32 p)-ATP, in […] of buffer containing Tris-HCl 25 mM, Ph 8.0, MgCl2 10 Mm and dithiothreitol 0.1 Mm (kinase buffer). The reaction mixture was incubated for the indicated time at […] and the reaction stopped by adding […] of 5% trichloroacetic acid. After a brief incubation on ice, tubes were centrifuged. The supernatants were spotted on phosphocellulose paper squares (Whatman P-81) and washed extensively in acetic acid. The radioactivity bound to dried phosphocellulose squares was measured in a liquid scintillation counter. IC50 values were. calculated from triplicated determinations of each experimental point. Each inhibitor was tested at concentrations ranging from […] in the presence of fixed concentrations of peptide (2 mM) and ATP (50 mM).

K562 cells = assay: K562 cell Growth Inhibition Assay; assay type: cell-based; settings: Homo sapiens, 66 h incubation, [3H]-Thymidine incorporation, with or without 10% foetal calf serum
Protocol: In-vivo Assay K562 cell Growth Inhibition Assay 1 ml of K562 cells, grown in suspension, were incubated for 66 h with or without 10% foetal calf serum in the presence of 1 mCi of [^3 H]-Thymidine. Cells were harvested, washed three times in cold PBS and treated with 5% trichloroacetic acid for 5 min. on ice. […] The extract was counted in a liquid scintillation counter. The inhibitory activity data for a representative compound according to the present invention, obtained both in the in-vitro p45 v-abl kinase assay and in the in-vivo human chronic myeloid leukemia K562 cell growth inhibition assay described above, are set out in Table 1.

## Nc1ccc2c(c1)C(=Cc1c[nH]c3ncccc13)C(=O)N2 [5-amino-3-[(7-azaindol-3-yl)methylen]-2-oxindole ditrifluoroacetate]
[1]
  pIC50: 7.05
K562 cells
  pIC50: 5.06

## N#Cc1ccc2c(c1)C(=Cc1c[nH]c3ncccc13)C(=O)N2 [5-cyano-3-[(7-azaindol-3-yl)methylen]-2-oxindole]
[1]
  pIC50: 6.01
K562 cells
  pIC50: 5.60
